Source: US9877957B2, “Tetrahydroisoquinoline derivatives useful as inhibitors of diacylglyceride O-acyltransferase 2” (Merck Sharp & Dohme Corp., priority 2014, dated 2018)

Target: hDGAT2 (Homo sapiens (Human), UniProt Q96PD7)
Experiment: DGAT2 Enzymatic Activity Assay (triolein formation, LC/MS/MS)
Format: biochemical
Settings: Sf-9 membrane prep expressing hDGAT2; 25 μM diolein, 10 μM oleoyl-CoA; room temperature; read-out: IC50 values for inhibition of DGAT2
Method: In Vitro DGAT2 ASSAYS and Determination of IC50 Values for DGAT2 Inhibitors
Insect Cell Expression and Membrane Preparation
Sf-9 insect cells were maintained in Grace's insect cell culture medium with 10% heated-inactivated fetal bovine serum, 1% Pluronic F-68 and 0.14 μg/ml Kanamycine sulfate in Erlenmeyer flasks at 28° C. in a shaker incubator. After infection with untagged hDGAT2 baculovirus at multiplicity of infection (MOI) 0.1 for 48 hours, cells were harvested. Cell pellets were suspended in buffer containing 10 mM Tris-HCl (pH 7.5), 1 mM EDTA (pH 8.0), 250 mM sucrose and Complete Protease Inhibitor Cocktail (Roche Diagnostics Corp., Indianapolis, Ill.), and sonicated on ice. Membrane fractions were isolated by ultracentrifugation (100,000× g pellet), resuspended in the same buffer, and frozen (−80° C.) for later use. The protein concentration was determined with the BCA Protein Assay kit (Pierce Biotechnology Inc., Rockford, Ill.). Expression of protein levels was analyzed by immunoblotting with goat polyclonal DGAT2 antibody C-15 and donkey anti-goat IgG HRP (Santa Cruz Biotechnology, Inc., Santa Cruz, Calif.) followed by detection with ECL reagent (GE Healthcare, Piscataway, N.J.).
LC/MS/MS analyses were performed using Thermal Fisher's LX4-TSQ Vantage system. This system consists of an Agilent binary high-performance liquid chromatography (HPLC) pumps and a TSQ Vantage triple quadrupole MS/MS instrument. For each sample, 2 μL samples from the top organic layer of in-plate liquid-liquid extraction were injected onto a Thermo Betabasic C4 column (2.1 mm×20 mm, 5 μm particle size). The samples were then eluted using the following conditions; mobile phase: methanol/water with 0.1% ammonium format=92/8 (v/v), flow rate: 1 mL/min, temperature: 25° C. Data was acquired in positive mode using a heated electrospray ionization (HESI) interface. The operational parameters for the TSQ Vantage MS/MS instrument were a spray voltage of 3000 V, capillary temperature of 280° C., vaporizer temperature 400° C., shealth gas 60 arbitrary unit, Aux gas 40 arbitrary units, S-lens 113 and collision gas 0.16 Pascals. […] (SRM) chromatograms of triolein (Q1: 902.9>Q3:602.3) and internal standard (Q1: 902.9>Q3:602.3) were collected for 40 sec. The peak area was integrated by Xcalibur Quan software. The ratio between the triolein generated in the reaction and spiked in internal standard were used to generate percentage inhibition and IC50 values. Compound percentage inhibition was calculated by the following formula: Inhibition %=1−[(compound response−low control)/(high control−low control)]×100%. Potent compounds were titrated and IC50 were calculated by 4 parameter sigmoidal curve fitting formula.
DGAT2 Enzymatic Activity Assay
DGAT2 activity was determined by measuring the amount of enzymatic product triolein (1,2,3-Tri(cis-9-octadecenoyl)glycerol) using the membrane prep mentioned above. The assay was carried out in deep well 384 plates in a final volume of 40 μL at room temperature. The assay mixture contained the following: assay buffer (100 mM Tris·Cl, pH 7.0, 20 mM MgCl2, 5% ethanol), 25 μM of diolein, 10 μM of oleoyl-CoA and 10 ng/μL of DGAT2 membrane.

hDGAT2, sequence (Q96PD7 whole entry): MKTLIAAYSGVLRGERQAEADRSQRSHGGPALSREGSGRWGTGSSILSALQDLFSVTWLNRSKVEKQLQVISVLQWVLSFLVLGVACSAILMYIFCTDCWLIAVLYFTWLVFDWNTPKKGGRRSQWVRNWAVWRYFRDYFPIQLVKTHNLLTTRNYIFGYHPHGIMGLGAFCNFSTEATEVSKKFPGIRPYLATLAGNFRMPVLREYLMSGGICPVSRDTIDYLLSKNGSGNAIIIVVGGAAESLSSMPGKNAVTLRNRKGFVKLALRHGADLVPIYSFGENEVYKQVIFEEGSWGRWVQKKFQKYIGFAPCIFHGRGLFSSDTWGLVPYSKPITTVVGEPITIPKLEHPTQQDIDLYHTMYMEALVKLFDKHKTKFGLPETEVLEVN

Row | Structure (SMILES) | IC50 [nM]
1 | Cn1c(CCNC(=O)c2ccc(-c3cccc(C(F)(F)F)c3)c3c2CN(C(=O)NC(C)(C)C)CC3)nc2ccccc21 [Example 20, N^2-(tert-butyl)-N^8-(2-(1-methyl-1H-benzo[d]imidazol-2-yl)ethyl)-5-(3-(trifluoromethyl)phenyl)-3,4-dihydroisoquinoline-2,8(1H)-dicarboxamide] | 205
2 | CC(C)(C)NC(=O)N1CCc2c(-c3cccc(OC(F)(F)F)c3)ccc(C(=O)NCc3nccc4ccccc34)c2C1 [Example 22, N^2-(tert-butyl)-N^8-(isoquinolin-1-ylmethyl)-5-(3-(trifluoromethoxy)phenyl)-3,4-dihydroisoquinoline-2,8(1H)-dicarboxamide] | 235
3 | CC(C)(C)NC(=O)N1CCc2c(-c3cccc(C(F)(F)F)c3)ccc(C(=O)NCCc3cn4ccccc4n3)c2C1 [Example 23, N^2-(tert-butyl)-N^8-(2-(imidazo[1,2-a]pyridin-2-yl)ethyl)-5-(3-(trifluoromethyl)phenyl)-3,4-dihydroisoquinoline-2,8(1H)-dicarboxamide] | 244
4 | CC(C)(C)NC(=O)N1CCc2c(-c3cccc(C(F)(F)F)c3)ccc(C(=O)NCc3nccc4cccnc34)c2C1 [Example 24, N^8-((1,7-naphthyridin-8-yl)methyl)-N^2-(tert-butyl)-5-(3-(trifluoromethyl)phenyl)-3,4-dihydroisoquinoline-2,8(1H)-dicarboxamide] | 265
5 | Cc1nn2cc(CCNC(=O)c3ccc(-c4cccc(C(F)(F)F)c4)c4c3CN(C(=O)NC(C)(C)C)CC4)nc2s1 [Example 25, N^2-(tert-butyl)-N^8-(2-(2-methylimidazo[2,1-b][1,3,4]thiadiazol-6-yl)ethyl)-5-(3-(trifluoromethyl)phenyl)-3,4-dihydroisoquinoline-2,8(1H)-dicarboxamide] | 271
6 | CC(C)(C)NC(=O)N1CCc2c(-c3cccc(C(F)(F)F)c3)ccc(C(=O)NCc3ccnc4ccccc34)c2C1 [Example 26, N^2-(tert-butyl)-N^8-(quinolin-4-ylmethyl)-5-(3-(trifluoromethyl)phenyl)-3,4-dihydroisoquinoline-2,8(1H)-dicarboxamide] | 292
7 | CC(C)(C)NC(=O)N1CCc2c(-c3cccc(C(F)(F)F)c3)ccc(C(=O)NCc3conc3C#N)c2C1 [Example 27, N^2-(tert-butyl)-N^8-((3-cyanoisoxazol-4-yl)methyl)-5-(3-(trifluoromethyl)phenyl)-3,4-dihydroisoquinoline-2,8(1H)-dicarboxamide] | 314
8 | CC(C)(C)NC(=O)N1CCc2c(-c3cccc(C(F)(F)F)c3)ccc(C(=O)NCCc3cscn3)c2C1 [Example 29, N^2-(tert-butyl)-N^8-(2-(thiazol-4-yl)ethyl)-5-(3-(trifluoromethyl)phenyl)-3,4-dihydroisoquinoline-2,8(1H)-dicarboxamide] | 329
9 | CC(C)(C)NC(=O)N1CCc2c(-c3cccc(C(F)(F)F)c3)ccc(C(=O)NCc3cnn4ccccc34)c2C1 [Example 30, N^2-(tert-butyl)-N^8-(pyrazolo[1,5-a]pyridin-3-ylmethyl)-5-(3-(trifluoromethyl)phenyl)-3,4-dihydroisoquinoline-2,8(1H)-dicarboxamide] | 351
10 | Cc1cc(C)n(CCNC(=O)c2ccc(-c3cccc(C(F)(F)F)c3)c3c2CN(C(=O)NC(C)(C)C)CC3)n1 [Example 31, N^2-(tert-butyl)-N^8-(2-(3,5-dimethyl-1H-pyrazol-1-yl)ethyl)-5-(3-(trifluoromethyl)phenyl)-3,4-dihydroisoquinoline-2,8(1H)-dicarboxamide] | 505
11 | Cc1sc(-c2ccccc2)nc1CNC(=O)c1ccc(-c2cccc(C(F)(F)F)c2)c2c1CN(C(=O)NC(C)(C)C)CC2 [Example 32, N^2-(tert-butyl)-N^8-((5-methyl-2-phenylthiazol-4-yl)methyl)-5-(3-(trifluoromethyl)phenyl)-3,4-dihydroisoquinoline-2,8(1H)-dicarboxamide] | 539
12 | CC(C)(C)NC(=O)N1CCc2c(-c3cccc(C(F)(F)F)c3)ccc(C(=O)NCCn3nnc4ccccc43)c2C1 [Example 34, N^8-(2-(1H-benzo[d][1,2,3]triazol-1-yl)ethyl)-N^2-(tert-butyl)-5-(3-(trifluoromethyl)phenyl)-3,4-dihydroisoquinoline-2,8(1H)-dicarboxamide] | 664
13 | CC(C)(C)NC(=O)N1CCc2c(-c3cccc(C(F)(F)F)c3)ccc(C(=O)NCc3n[nH]c4c3CCC4)c2C1 [Example 35, N^2-(tert-butyl)-N^8-((1,4,5,6-tetrahydrocyclopenta[c]pyrazol-3-yl)methyl)-5-(3-(trifluoromethyl)phenyl)-3,4-dihydroisoquinoline-2,8(1H)-dicarboxamide] | 727
14 | CC(C)(C)NC(=O)N1CCc2c(-c3cccc(C(F)(F)F)c3)ccc(C(=O)NCC(c3ccccn3)N3CCOCC3)c2C1 (centres unmarked) [Example 36, N^2-(tert-butyl)-N^8-(2-morpholino-2-(pyridin-2-yl)ethyl)-5-(3-(trifluoromethyl)phenyl)-3,4-dihydroisoquinoline-2,8(1H)-dicarboxamide] | 737
15 | CC(C)(C)NC(=O)N1CCc2c(-c3cccc(C(F)(F)F)c3)ccc(C(=O)NCCn3nncc3-c3ccccc3)c2C1 [Example 37, N^2-(tert-butyl)-N^8-(2-(5-phenyl-1H-1,2,3-triazol-1-yl)ethyl)-5-(3-(trifluoromethyl)phenyl)-3,4-dihydroisoquinoline-2,8(1H)-dicarboxamide] | 739
16 | Cc1cc(C(F)(F)F)nc(CCNC(=O)c2ccc(-c3cccc(C(F)(F)F)c3)c3c2CN(C(=O)NC(C)(C)C)CC3)n1 [Example 38, N^2-(tert-butyl)-N^8-(2-(4-methyl-6-(trifluoromethyl)pyrimidin-2-yl)ethyl)-5-(3-(trifluoromethyl)phenyl)-3,4-dihydroisoquinoline-2,8(1H)-dicarboxamide] | 854
17 | CC(C)(C)NC(=O)N1CCc2c(-c3cccc(C(F)(F)F)c3)ccc(C(=O)NCc3scnc3-c3ccccc3)c2C1 [Example 39, N^2-(tert-butyl)-N^8-((4-phenylthiazol-5-yl)methyl)-5-(3-(trifluoromethyl)phenyl)-3,4-dihydroisoquinoline-2,8(1H)-dicarboxamide] | 890
18 | CC(C)(C)NC(=O)N1CCc2c(-c3cccc(C(F)(F)F)c3)ccc(C(=O)NCCc3ccccc3C(F)(F)F)c2C1 [Example 40, N^2-(tert-butyl)-N^8-(2-(trifluoromethyl)phenethyl)-5-(3-(trifluoromethyl)phenyl)-3,4-dihydroisoquinoline-2,8(1H)-dicarboxamide] | 905
19 | Cc1nc(C)c(CNC(=O)c2ccc(-c3cccc(C(F)(F)F)c3)c3c2CN(C(=O)NC(C)(C)C)CC3)s1 [Example 41, N^2-(tert-butyl)-N^8-((2,4-dimethylthiazol-5-yl)methyl)-5-(3-(trifluoromethyl)phenyl)-3,4-dihydroisoquinoline-2,8(1H)-dicarboxamide] | 907
20 | CC(C)(C)NC(=O)N1CCc2c(-c3cccc(C(F)(F)F)c3)ccc(C(=O)NCCc3ncn[nH]3)c2C1 [Example 42, N^8-(2-(1H-1,2,4-triazol-5-yl)ethyl)-N^2-(tert-butyl)-5-(3-(trifluoromethyl)phenyl)-3,4-dihydroisoquinoline-2,8(1H)-dicarboxamide] | 959
